Source: US11786492B2, “Therapeutic agent for phosphodiesterase inhibition and its related disorders” (Novalead Pharma Inc, priority 2017, dated 2023)

Legend:
human PBMCs = experiment: Cell viability of human PBMCs, Alamar blue; format: cell-based; details: 3 μM
Description: (§1) Fresh human blood from healthy volunteer was collected in anticoagulant (5 mM) ethylene diamine tetra acetic acid (EDTA) containing tubes. The growth medium used was RPMI-1640 medium (with 3% FBS) and incubated at 37° C. for 60 mins in a 5% CO2 incubator with vehicle used as 1% DMSO. The cell viability was checked at various time points using Alamar blue and fluorescence readings were taken at excitation of 544 nm and emission of 590 nm.

Human IL-22 = experiment: IL-22 release from stimulated PBMCs, ELISA; format: cell-based; details: 1 μM; PMA+Ionomycin, 18 hrs
Description: as §1
(§2) PBMCs were stimulated with different stimulators as follows: • a. Cells were exposed to stimulator LPS at 100 ng/mL for 18 hrs to stimulate TNF-α, IL-6, IFN-γ, IL10, IL-1β • b. Cells were exposed to stimulator IFN-γ+LPS at 100 ng/mL+1 μg/mL for 18 hrs to stimulate IL-12 • c. Cells were exposed to stimulator PMA+Ionomycin at 50 ng/mL+1 μg/mL for 18 hrs to stimulate IL-23, IL-22, IL-17A, IL-17F
(§3) After 18 hrs supernatants were collected and centrifuged to remove any cell debris and aliquots were used for ELISA.

Human IL-17A = experiment: IL-17A release from stimulated PBMCs, ELISA; format: cell-based; details: 1 μM; PMA+Ionomycin, 18 hrs
Description: as §1, §2, §3

Human IL-17F = experiment: IL-17F release from stimulated PBMCs, ELISA; format: cell-based; details: 1 μM; PMA+Ionomycin, 18 hrs
Description: as §1, §2, §3

Human TNF-α = experiment: TNF-α release from stimulated PBMCs, ELISA; format: cell-based; details: 1 μM; LPS 100 ng/mL, 18 hrs
Description: as §1, §2, §3

Human IL-6 = experiment: IL-6 release from stimulated PBMCs, ELISA; format: cell-based; details: 1 μM; LPS 100 ng/mL, 18 hrs
Description: as §1, §2, §3

Human IL-10 = experiment: IL-10 release from stimulated PBMCs, ELISA; format: cell-based; details: 1 μM; LPS 100 ng/mL, 18 hrs
Description: as §1, §2, §3

Human IL-12 = experiment: IL-12 release from stimulated PBMCs, ELISA; format: cell-based; details: 1 μM; IFN-γ+LPS, 18 hrs
Description: as §1, §2, §3

Human IFN-γ = experiment: IFN-γ release from stimulated PBMCs, ELISA; format: cell-based; details: 1 μM; LPS 100 ng/mL, 18 hrs
Description: as §1, §2, §3

Human IL-1β = experiment: IL-1β release from stimulated PBMCs, ELISA; format: cell-based; details: 1 μM; LPS 100 ng/mL, 18 hrs
Description: as §1, §2, §3

HaCaT cells = experiment: Cell viability of HaCaT cells, Alamar blue; format: cell-based, human; details: 3 μM
Description: (§4) HaCaT cells were maintained in T-75 cm2 flask in Dulbecco's modified Eagle medium supplemented with FBS (10%), L-glutamine (2 mM), penicillin (100 ug/ml), streptomycin (100 ug/ml) at 37° C. in 5% CO2 incubator. Cell growth was maintained to 70-80% confluence for seeding and vehicle used was 1% DMSO. The cell viability was checked at various time points using Alamar blue and fluorescence readings were taken at excitation of 544 nm and emission of 590 nm.

TNF-α = TNF-α release from stimulated HaCaT cells, ELISA; format: cell-based, human; details: 1 μM; IFN-γ 50 ng/mL, 48 hrs
Description: as §4
(§5) HaCaT cells were stimulated with different stimulators as follows: • a. Cells were exposed to stimulator LPS at 1 μg/mL for 48 hrs to stimulate IL-1β • b. Cells were exposed to stimulator IFN-γ at 50 ng/mL for 48 hrs to stimulate TNF-α, IL-6
(§6) After 48 hrs supernatants were collected and centrifuged to remove any cell debris and aliquots were used for ELISA.

IL-6 = IL-6 release from stimulated HaCaT cells, ELISA; format: cell-based, human; details: 1 μM; IFN-γ 50 ng/mL, 48 hrs
Description: as §4, §5, §6

[1] = test system: Imiquimod induced psoriasis in BALB/c mice; experiment: Imiquimod induced psoriasis model in Balb/c mice
Description: BALB/c mice (Sex: Female, Age: 7-8 Weeks) were used for induction of psoriasis using IMQ. Topical application of imiquimod (IMQ) in mice can induce and exacerbate psoriasis closely resembling human psoriasis. […] 3%, 4% and 5% and positive control of Tenovate (Clobetasol) 0.05% cream. In all 63 mg cream containing 5% of IMQ was applied to dorsal area (shaved back) and right ear for 8 days. Topical formulations from Example 7 were used during this experiment.
The parameters investigated were ear thickness change, % inhibition of ear inflammation, Psoriatic Area Severity Index (PASI). Histopathology was performed of right ear and dorsal skin by H & E staining. The biomarker in this study was inflammatory cytokine IL-23 analyzed by ELISA obtained from tissue lysate of ear region where IMQ and doses were applied.

C[C@@H]1C[C@H]2[C@@H]3CCC4=CC(=O)C=C[C@]4(C)[C@@]3(F)[C@@H](O)C[C@]2(C)[C@@]1(O)C(=O)CO [Dexamethasone]
% Viability (±S.E.M.) (human PBMCs; 24 hrs): 82 ± 6% | % Viability (±S.E.M.) (human PBMCs; 48 hrs): 78 ± 1% | % Viability (±S.E.M.) (human PBMCs; 72 hrs): 81 ± 1% | Human IL-22 concentration (Human IL-22): 2496 pg/mL | Human IL-17A concentration (Human IL-17A): 186 pg/mL | Human IL-17F concentration (Human IL-17F): 322 pg/mL | Human TNF-α concentration (Human TNF-α): 325 pg/mL | Human IL-6 concentration (Human IL-6): 3052 pg/mL | Human IL-10 concentration (Human IL-10): 710 pg/mL | Human IL-12 concentration (Human IL-12): 163 pg/mL | Human IFN-γ concentration (Human IFN-γ): 165 pg/mL | Human IL-1β concentration (Human IL-1β): 174 pg/mL | % Viability (±S.E.M.) (HaCaT cells; 24 hrs): 46 ± 3% | % Viability (±S.E.M.) (HaCaT cells; 48 hrs): 18 ± 2% | % Viability (±S.E.M.) (HaCaT cells; 72 hrs): 8 ± 0% | TNF-α Conc. (TNF-α): 3.2 ± 0 pg/mL | IL-6 Conc. (IL-6): 33 ± 1 pg/mL

C[C@H]1C[C@H]2[C@@H]3CCC4=CC(=O)C=C[C@]4(C)[C@@]3(F)[C@@H](O)C[C@]2(C)[C@@]1(O)C(=O)CCl [Clobetasol]
% Body Weight Change ([1]; 0.05% cream, positive control): −16.9% | % inhibition of Ear inflamn. ([1]; 0.05% cream, positive control): 86.9% | Histopathology Scores Epidermal Thickness ([1]; 0.05% cream, positive control): 4.3 ± 0.3 | Histopathology Scores Hyperkeratosis ([1]; 0.05% cream, positive control): 1.0 ± 0.0 | Histopathology Scores Rete Peg Prolifern. ([1]; 0.05% cream, positive control): 0.3 ± 0.3 | PASI score ([1]; 0.05% cream, positive control): 4.83 ± 2.3 | Spleen weight ([1]; 0.05% cream, positive control, Day 9): 49.3 ± 10.3 mg | IL23 Levels ([1]; 0.05% cream, positive control, ear tissue lysate): 64.1 ± 7.4 pg/mL | Spleen weight vs disease control (in words) ([1]; Niclosamide 2%, Nitazoxanide 3% and 5%, Clobetasol 0.05%, Day 9): reduction in spleen weight was observed to be significant | Body weight change (in words) ([1]; all tested doses, Clobetasol Day 7 to Day 9): significant body weight change | IL-23 level in ear tissue homogenates (in words) ([1]; different doses): reduces IL-23 levels below that of normal control
